O=C(OCC1c2ccccc2-c2ccccc21)ON1C(=O)CCC1=O
solubility (mole fraction)
Conditions	283.15 K	288.15 K	293.15 K	298.15 K	303.15 K	308.15 K	313.15 K	318.15 K	323.15 K	328.15 K
in DMF	0.00369	0.00533	0.00719	0.00964	0.0132	0.0177	0.023	0.0298	0.0387	0.0499
in DMSO	–	–	0.00499	0.00641	0.0084	0.0107	0.0134	0.0167	0.0208	0.0257
in ethanol	0.000477	0.000571	0.000687	0.000824	0.000979	0.00115	0.00134	0.00155	0.00177	0.00205
in ethylene glycol	0.000151	0.00019	0.000241	0.000314	0.000396	0.00049	0.000611	0.000748	0.00092	0.00111
in water	–	–	5.77e-06	7.38e-06	9.44e-06	1.19e-05	1.49e-05	1.84e-05	2.28e-05	2.78e-05

Source: BigSolDB 2.1
